The values that follow come from PMC9920749, “In Vitro and In Silico Studies of Neolignans from Magnolia grandiflora L. Seeds against Human Cannabinoids and Opioid Receptors” (Molecules, 2023).

SMILES strings stand for the structures. Read-outs that look alike come from different tables or passages of the source.

In assay [1] the target is T1, CB2R (Homo sapiens, UniProt P34972).
T1 construct: expressed in transfected cells; host or cells: HEK293 (ATCC), stably transfected; membrane preparation
Description: Competitive radioligand binding assay, [3H]-CP55,940, HEK293 membranes. The following applies: for Cannabinoid Receptors (% Displacement) CB2: 10 μM purified compounds and 2 + 3. As to the method: (§1) Cannabinoid and opioid competitive radioligand binding assays were performed as previously described. Saturation experiments were performed for all the receptors to determine receptor concentration and radioligand dissociation constant (Kd) for the membrane. Percent displacements were evaluated for all the cannabinoid and opioid subtypes with a triplicate of a fixed concentration (10 µg/mL for extracts and fractions, 10 μM for purified compounds). […] Control/test compounds were dissolved in DMSO at 10 μg/mL for extracts and fractions and 10 μM for purified compounds. […] The competitive binding assays were performed using 12 serial dilutions of each compound ranging from 0.002–300 μM (control compounds were serially diluted from 10 μM to 0.06 nM). The cannabinoid assays were incubated for 90 min at 37 °C with gentle agitation. The opioid assays were incubated for 60 min at room temperature. Bound radioligand was collected on GF/C (cannabinoid) or GF/B plates (opioid), washed 10 times with ice-cold 50 mM Tris-HCl (pH 7.4)/0.1% BSA (cannabinoid) or ice-cold 50 mM Tris-HCl (pH 7.4) (opioid). Radiodetection was measured with 50 µL (cannabinoid) or 25 µL (opioid) MicroScint^TM-20 on a TopCount NXT HTS Microplate Scintillation Counter (PerkinElmer, Waltham, MA, USA). The IC50 and Ki values were calculated by a non-linear curve fit model using GraphPad Prizm 5.0 software (GraphPad Software Inc., San Diego, CA, USA). Each compound was tested in triplicate unless stated otherwise.
(§2) Percent displacement was calculated to represent the ability of the samples to displace the radioligand binding for a given cannabinoid or opioid receptor subtype.
(§3) % displacement was calculated as follows: 100− binding of compound−nonspecific binding/specific binding×100

The target of assay [2] is CB2R. The note with it: cited from earlier work.
For assay [3], the system named is CB2R. Also noted: method as in Schuehly et al. (2011). The note with it: ref Schuehly et al. (2011); cited from earlier work.
The target of assay [4] is T2, µ opioid receptor (Homo sapiens, UniProt P35372).
T2 construct: host or cells: HEK293, stably transfected; membrane preparation
Kind of assay: biochemical. Format: binding. The note with it: for Opioid Receptors (% Displacement) µ: 10 μM purified compounds and 2 + 3; for IC50: 2 and 3 run as a singlet; for µ Opioid Receptor Ki ± SEM / Ki: 2 and 3 run as a singlet (no S.E.M.); for Ki: read-out: µ Opioid Receptor Ki ± SEM. The method, then: (§4) HEK293 cells stably transfected with δ, κ, and μ opioid subtypes were a generous gift from Roth Laboratories (University of North Carolina at Chapel Hill, NC, USA). Opioid cells were maintained as previously described. Membranes were made by washing the cells with cold PBS. The cells were then scraped in cold 50 mM Tris-HCl, pH 7.4 buffer. The solution was centrifuged at 5200× g for 10 min at 4 °C. Next, the supernatant was discarded, and the pellet was washed with more Tris-HCl buffer, homogenized via Sonic Dismembrator (Fisher Scientific, Pittsburgh, PA, USA) and then centrifuged at 24,000× g for 40 min at 4 °C. Finally, the pellet was re-suspended in cold 50 mM Tris-HCl buffer, aliquoted into 2 mL vials, and stored at −80 °C. The total membrane protein concentration was measured using a Pierce BCA Protein Assay Kit (Thermo Scientific, Rockford, IL, USA) as per the manufacturer’s protocol.
as §1, §2, §3

Assay [5] concerns the target T3, κ opioid receptor (Homo sapiens, UniProt P41145).
T3 construct: host or cells: HEK293, stably transfected; membrane preparation
Type of assay: binding. The note with it: 10 μM purified compounds and 2 + 3. The method, then:
as §4, with “Finally, the pellet was re-suspended in cold 50 mM Tris-HCl buffer, aliquoted into 2 mL vials, and stored at −80 °C.” left out
(§5) Cannabinoid and opioid competitive radioligand binding assays were performed as previously described. […] Percent displacements were evaluated for all the cannabinoid and opioid subtypes with a triplicate of a fixed concentration (10 µg/mL for extracts and fractions, 10 μM for purified compounds). […] Radiodetection was measured with 50 µL (cannabinoid) or 25 µL (opioid) MicroScint^TM-20 on a TopCount NXT HTS Microplate Scintillation Counter (PerkinElmer, Waltham, MA, USA). The IC50 and Ki values were calculated by a non-linear curve fit model using GraphPad Prizm 5.0 software (GraphPad Software Inc., San Diego, CA, USA). […]

The target of assay [6] is T4, δ opioid receptor (Homo sapiens, UniProt P41143).
T4 construct: host or cells: HEK293, stably transfected; membrane preparation
Description: Competitive radioligand binding assay, [3H]-enkephalin (DPDPE), HEK293 membranes. The note with it: 10 μM purified compounds and 2 + 3. As to the method:
as §4, with “Finally, the pellet was re-suspended in cold 50 mM Tris-HCl buffer, aliquoted into 2 mL vials, and stored at −80 °C.” left out
as §5

The test system of assay [7] is CB1 receptor. Also noted: method as in PMID 24204944. The note with it: forskolin-induced cAMP; cited from earlier work.
Assay [8] concerns CB2 receptor. Also noted: method as in PMID 24204944. The following applies: forskolin-induced cAMP; cited from earlier work.
In assay [9] the target is CB1R. The note with it: data from the original publication; read-out: CB1R Agonist Ki; cited from earlier work.
In assay [10] the target is T5, CB1R (Homo sapiens, UniProt P21554).
T5 construct: expressed in transfected cells; host or cells: HEK293 (ATCC), stably transfected; membrane preparation
Description: Competitive radioligand binding assay, [3H]-CP55,940, HEK293 membranes. The note with it: for Cannabinoid Receptors (% Displacement) CB1: 10 μM purified compounds and 2 + 3; for IC50: concentration for 50% displacement of 3H-labeled ligand; for Ki: read-out: CB1R Ki ± SEM. The method, then: as §4, §1, §2, §3
For orientation: In a radioligand displacement assay an active substance lowers the binding of a labelled ligand.

Assay [11] relates to CB2R. On the set-up: method as in earlier work. The following applies: ref 27 (Rempel et al. 2013); cited from earlier work.
Where [12] appears, read: data from the original publication, read-out: CB2R Agonist Ki.
Where [13] appears, read: concentration for 50% displacement of 3H-labeled ligand, read-out: CB2R IC50.

T2 sequence (P35372 whole entry): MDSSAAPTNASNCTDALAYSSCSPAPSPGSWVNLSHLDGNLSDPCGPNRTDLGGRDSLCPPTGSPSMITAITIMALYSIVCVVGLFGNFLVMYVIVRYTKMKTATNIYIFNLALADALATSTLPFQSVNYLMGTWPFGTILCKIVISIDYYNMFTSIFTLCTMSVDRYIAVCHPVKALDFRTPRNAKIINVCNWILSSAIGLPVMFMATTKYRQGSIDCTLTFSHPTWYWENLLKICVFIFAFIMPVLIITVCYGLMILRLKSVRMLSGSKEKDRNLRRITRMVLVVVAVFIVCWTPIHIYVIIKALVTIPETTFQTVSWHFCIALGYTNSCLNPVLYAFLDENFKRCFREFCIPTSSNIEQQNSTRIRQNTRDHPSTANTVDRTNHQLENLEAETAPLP
T5 sequence (P21554 whole entry): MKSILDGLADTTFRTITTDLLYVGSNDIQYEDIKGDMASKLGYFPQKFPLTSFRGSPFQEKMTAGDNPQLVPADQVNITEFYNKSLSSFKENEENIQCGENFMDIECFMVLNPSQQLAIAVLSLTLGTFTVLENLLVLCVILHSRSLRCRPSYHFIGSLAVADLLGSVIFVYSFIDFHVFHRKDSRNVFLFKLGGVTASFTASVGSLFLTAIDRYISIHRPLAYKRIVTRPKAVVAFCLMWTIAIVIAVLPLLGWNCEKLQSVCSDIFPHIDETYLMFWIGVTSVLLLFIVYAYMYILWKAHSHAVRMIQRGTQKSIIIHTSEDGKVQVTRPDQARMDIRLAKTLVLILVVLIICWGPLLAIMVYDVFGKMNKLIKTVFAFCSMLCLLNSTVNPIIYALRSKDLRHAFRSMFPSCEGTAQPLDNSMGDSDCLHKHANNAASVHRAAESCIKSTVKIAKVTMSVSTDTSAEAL
T1 sequence (P34972 whole entry): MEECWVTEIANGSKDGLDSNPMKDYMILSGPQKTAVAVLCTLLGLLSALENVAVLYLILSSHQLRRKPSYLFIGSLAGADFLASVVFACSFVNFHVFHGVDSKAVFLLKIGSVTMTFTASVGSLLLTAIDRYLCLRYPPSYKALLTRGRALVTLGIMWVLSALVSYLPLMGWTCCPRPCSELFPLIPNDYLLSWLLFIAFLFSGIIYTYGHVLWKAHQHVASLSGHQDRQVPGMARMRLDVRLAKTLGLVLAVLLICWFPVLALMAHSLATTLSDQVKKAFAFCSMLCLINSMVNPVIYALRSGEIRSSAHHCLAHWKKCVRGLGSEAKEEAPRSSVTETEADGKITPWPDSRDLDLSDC
T4 sequence (P41143 whole entry): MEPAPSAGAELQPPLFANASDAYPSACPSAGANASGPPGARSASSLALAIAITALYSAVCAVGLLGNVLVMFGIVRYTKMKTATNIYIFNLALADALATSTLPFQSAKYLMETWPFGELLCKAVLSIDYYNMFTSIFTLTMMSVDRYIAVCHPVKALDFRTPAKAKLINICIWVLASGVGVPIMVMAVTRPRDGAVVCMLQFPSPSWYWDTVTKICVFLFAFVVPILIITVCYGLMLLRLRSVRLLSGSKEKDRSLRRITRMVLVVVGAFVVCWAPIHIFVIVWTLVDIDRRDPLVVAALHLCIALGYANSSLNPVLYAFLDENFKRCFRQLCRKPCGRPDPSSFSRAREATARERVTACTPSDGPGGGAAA
T3 sequence (P41145 whole entry): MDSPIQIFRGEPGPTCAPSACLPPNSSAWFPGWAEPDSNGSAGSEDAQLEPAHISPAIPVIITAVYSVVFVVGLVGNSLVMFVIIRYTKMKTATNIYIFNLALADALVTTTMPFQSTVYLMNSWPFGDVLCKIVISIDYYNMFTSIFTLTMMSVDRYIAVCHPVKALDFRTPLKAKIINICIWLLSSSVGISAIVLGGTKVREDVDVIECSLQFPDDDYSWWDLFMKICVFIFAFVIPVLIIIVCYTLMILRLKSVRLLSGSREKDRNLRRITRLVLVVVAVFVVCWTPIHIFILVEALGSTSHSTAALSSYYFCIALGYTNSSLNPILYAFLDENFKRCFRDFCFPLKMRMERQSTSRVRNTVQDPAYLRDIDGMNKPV

On to `CCCCCCC(C)(C)c1ccc([C@@H]2C[C@H](O)CC[C@H]2CCCO)c(O)c1` [CP55,940, reference compound], for which the “Cannabinoid Receptors (% Displacement) CB2” value in [1] was 101.3%.

As a reminder, the Ki is a measure of affinity in units of concentration, obtained from inhibition or displacement. Broadly, the IC50 is the concentration needed to halve the response being measured. In the case of `C=CCc1ccc(O)c(-c2ccc(OC)c(CC=C)c2)c1` [Compound 1, 4-O-methylhonokiol], the Ki in assay [2] (setting [12]) is 43.3 ± 17.1 nM. Further, in assay [3], the “behavior at CB2R at Gi/o” value is given as “inverse agonist” and the “behavior at CB2R regarding intracellular Ca2+ [Ca2+]i” value is reported as “full agonist”. The “Opioid Receptors (% Displacement) µ” value in assay [4] was 46.2%. For the same compound, the “Opioid Receptors (% Displacement) κ” value in [5] is on record as 18.3%. Also, in assay [6], the “Opioid Receptors (% Displacement) Δ” value was determined as 31.4%. Besides, in [7], the “functional activity at CB1 in cAMP accumulation” value is “agonist”. Besides, the “functional activity at CB2 in cAMP accumulation” value in assay [8] is “agonist”. Besides, in assay [1], the IC50 is 590 nM, the inhibitory constant (Ki) stood at 290 ± 20 nM and the “Cannabinoid Receptors (% Displacement) CB2” value came to 82.2%.

Turning to `C=CCc1ccc(O)c(-c2cc(CC=C)ccc2O)c1` [Compound 2, magnolol], the Ki in [9] is 3150 nM; in assay [2] (setting [12]) it was 1440 nM; in assay [4] it was 53100 nM; in assay [10] it was 17800 ± 3430 nM; in [1] (read-out: CB2R Ki ± SEM), 1400 ± 140 nM. Further, the “Opioid Receptors (% Displacement) µ” value in assay [4] worked out at 52.9%. The concentration for half-maximal inhibition (IC50) in assay [4] turned out to be 106000 nM; in assay [10], 35600 nM; in [1] (setting [13]), 2890 nM. Further, the “µ Opioid Receptor Ki ± SEM” value in assay [4] is listed as “low affinity”. In [5], the “Opioid Receptors (% Displacement) κ” value was determined as 10.7%. In addition, the “Cannabinoid Receptors (% Displacement) CB1” value in [10] is 52.7%. The “Opioid Receptors (% Displacement) Δ” value in assay [6] amounted to 7.3%. Besides, the “functional character at CB2R” value in assay [11] is given as “partial CB2R agonists”. The “Cannabinoid Receptors (% Displacement) CB2” value in [1] is listed as 74.7%.

As to `C=CCc1ccc(O)c(-c2ccc(O)c(CC=C)c2)c1` [Compound 3, honokiol], the inhibitory constant (Ki) in assay [9] was 6460 nM; in assay [2] (setting [12]), 5610 nM; in [4], 182000 nM; in assay [10], 14500 ± 2470 nM; in assay [1] (read-out: CB2R Ki ± SEM), 1940 ± 160 nM. In addition, the “Opioid Receptors (% Displacement) µ” value in assay [4] stood at 54.2%. In addition, the IC50 in [4] turned out to be 91100 nM; in assay [10] it was 29100 nM; in [1] (setting [13]) it was 3880 nM. The “µ Opioid Receptor Ki ± SEM” value in assay [4] is “low affinity”. In assay [10], the “Cannabinoid Receptors (% Displacement) CB1” value was found to be 50.8%. The “functional character at CB2R” value in [11] is “CB2R antagonist or inverse agonist”. For the same compound, in [1], the “Cannabinoid Receptors (% Displacement) CB2” value worked out at 65.7%.

Regarding `CCCc1ccc(O)c(-c2cc(CCC)ccc2O)c1` [Compound 4, tetrahydromagnolol], the Ki in assay [9] was 2260 nM; in assay [2] (setting [12]), 416 nM; in assay [2] (ref 27 (Rempel et al. 2013), read-out: CB2R Ki), 410 nM; in assay [10] it was 19100 ± 790 nM; in assay [1] (read-out: CB2R Ki ± SEM), 990 ± 140 nM. Besides, the “Cannabinoid Receptors (% Displacement) CB1” value in [10] stood at 30.8%. Also, the results for the concentration for half-maximal inhibition (IC50) in assay [10] and in [1] (setting [13]) were 38200 nM and 1990 nM, respectively. In addition, the “functional character at CB2R” value in assay [11] is on record as “partial CB2R agonists”. For the same compound, in [1], the “Cannabinoid Receptors (% Displacement) CB2” value is on record as 78.2%.

On to `CCCc1ccc(O)c(-c2cc(CCC)ccc2OC)c1` [Compound 4a, methoxytetrahydromagnolol], for which the Ki in assay [9] was 267 ± 58 nM; in assay [2] (setting [12]), 221 ± 57 nM.

On to `CCCCCc1ccc(O)c(-c2cc(CCC)ccc2O)c1` [Compound 5], for which the Ki is 362 ± 113 nM in assay [9] and 37.5 ± 7.8 nM in [2] (setting [12]).

Take `CCCCCc1ccc(O)c(-c2cc(CCC)ccc2OC)c1` [Compound 5a]: the inhibitory constant (Ki) in assay [9] is 17.3 ± 1.4 nM; in assay [2] (setting [12]) it was 31 ± 9.9 nM.

`CCCCCCc1ccc(O)c(-c2cc(CCC)ccc2O)c1` [Compound 6]: the results for the inhibition constant (Ki) in assay [9] and in assay [2] (setting [12]) were 145 ± 48 nM and 29.4 ± 9 nM, respectively.

Take `CCCCCCc1ccc(O)c(-c2cc(CCC)ccc2OC)c1` [Compound 6a]: the inhibitory constant (Ki) in assay [9] was 9.57 ± 5.43 nM; in assay [2] (setting [12]), 23.8 ± 7.1 nM.

For the compound `CCCCCCc1ccc(OC)c(-c2cc(CCC)ccc2O)c1` [Compound 6b], the inhibition constant Ki in [9] was 313 nM; in assay [2] (setting [12]) it was 281 ± 101 nM.
